Source: US20140309172A1, “ICE INHIBITING COMPOUNDS AND USES THEREOF” (priority 2010, published 2014)

What was measured:
[1] = test system: M17 cells overexpressing alpha-synuclein; assay: Cell viability of M17 cells overexpressing alpha-synuclein (LIVE/DEAD assay); type: cell-based, human
Description: Humans have 28 calpain and caspase isozymes—a large but not impossible number to test. RNAi was used to knock down each of these in turn in a neuronal cell culture model of PD. It is a neuroblastoma cell line (BE(2)-M17) carrying a wild-type α-synuclein overexpressing vector. BE(2)-M17 is a clone of the SK-N-BE(2) cell line that was established in November of 1972 from a bone marrow biopsy taken from a child with neuroblastoma. Synuclein on its own is not toxic to these cells, but it is toxic when combined with an oxidative stress agent such as rotenone or menadione. Greater than 90% reduction of mRNA levels for each of the 29 protease genes was routinely achieved, and greater than 50% reduction in protein levels (typically, about 70% reduction) was routinely achieved.
A cell viability assay was performed using LIVE/DEAD (molecular probes) assay according to the manufacture instructions. As summarized in FIG. 10, both RNAi knockdown of caspase-1/ICE and treatment with the caspase-1/ICE inhibitor block synuclein fragment formation in nerve cells and should inhibit synuclein aggregation in neuronal cells derived from one or more mouse models of PD.

[2] = test system: M17 cells carrying empty pcDNA3 vector; assay: Cell viability of M17 cells with pcDNA3 empty vector in the presence of menadione; type: cell-based, human; conditions: low concentrations of menadione, FIG. 8
[3] = Preliminary tests of blood-brain barrier penetration in animals; type: in vivo

BBB penetration [3]	Compound	toxicity to M17 cells overexpressing a-synuclein ([1]; low concentrations of menadione, FIG. 8)	toxicity to M17 cells carrying empty pcDNA3 vector [2]	rescue from alpha-synuclein-induced toxicity (cell viability) ([1]; M17 cells overexpressing alpha-synuclein, FIG. 10)
	CC1=CC(=O)c2ccccc2C1=O [menadione]	toxic	not toxic	
low	CCO[C@@H]1OC(=O)C[C@@H]1NC(=O)[C@@H]1CCCN1C(=O)[C@@H](NC(=O)c1ccc(N)c(Cl)c1)C(C)(C)C [VX-765]			rescued
low	CC(C)(C)[C@H](NC(=O)c1ccc(N)c(Cl)c1)C(=O)N1CCC[C@H]1C(=O)N[C@H](C#N)CC(=O)O [NCGC00185682]			
